Assay results published in patent publication US20230151017A1, “THERAPEUTIC AGENTS TARGETING GPR35” (PROMETHEUS BIOSCIENCES, INC., priority 2020, published 2023).

molecular target: T1, Human GPR35 (Homo sapiens, UniProt Q9HC97); assay: Beta-Arrestin Assay; type: cell-based; conditions: Human GPR35 expressing JumpIn 294S Tango U2OS cells; compounds overnight; LiveBLAzer-FRET B/G (CCF4-AM) readout
T1 construct: Tango receptor fusion (protease cleavage site + Gal4-VP16 transcription factor); host or cells: Jump-In Tango U2OS cells
T1 sequence (Q9HC97 whole entry, the tested form may be a part): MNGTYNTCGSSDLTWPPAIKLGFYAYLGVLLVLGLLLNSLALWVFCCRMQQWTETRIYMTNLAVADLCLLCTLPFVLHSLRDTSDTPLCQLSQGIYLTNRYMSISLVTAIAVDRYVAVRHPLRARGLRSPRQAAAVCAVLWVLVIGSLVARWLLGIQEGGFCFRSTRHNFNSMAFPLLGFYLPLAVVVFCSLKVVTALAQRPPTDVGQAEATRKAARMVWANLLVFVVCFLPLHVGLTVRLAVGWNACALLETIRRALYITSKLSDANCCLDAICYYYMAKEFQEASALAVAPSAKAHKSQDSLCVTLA
Procedure: Human GPR35 expressing JumpIn (Thermo Fisher) 294S Tango U2OS cells were plated in 384-well format in clear bottom plates at a cell density of 10,000 cells/well and allowed to adhere for 5 hours. Cells were then treated with serially diluted test compounds overnight. The next day, LiveBLAzer-FRET B/G (CCF4-AM) detection reagents were added, and cells were allowed to incubate for 4 hours in the dark at room temp before reading plates on a BioTek Cytation 5 plate reader. To determine EC50 values, data were fit to a four-parameter dose-response curves.

| SMILES | EC50 |
| --- | --- |
| CCOc1cc(-c2cccc(CCO)c2)ccc1-c1nc2[nH]nnc2c(=O)[nH]1 [Compound 103, 5-(3-Ethoxy-3′-(2-hydroxyethyl)-[1,1′-biphenyl]-4-yl)-3,6-dihydro-7H-[1,2,3]triazolo[4,5-d]pyrimidin-7-one] | 1000 to 10000 nM |
| CCOc1cc(-c2cccc(S(N)(=O)=O)c2)ccc1-c1nc2[nH]nnc2c(=O)[nH]1 [Compound 106, 3′-Ethoxy-4′-(7-oxo-6,7-dihydro-3H-[1,2,3]triazolo[4,5-d]pyrimidin-5-yl)-[1,1′-biphenyl]-3-sulfonamide] | 1000 to 10000 nM |
| CCOc1cc(-c2ccc(S(N)(=O)=O)cc2)ccc1-c1nc2[nH]nnc2c(=O)[nH]1 [Compound 107, 3′-Ethoxy-4′-(7-oxo-6,7-dihydro-3H-[1,2,3]triazolo[4,5-d]pyrimidin-5-yl)-[1,1′-biphenyl]-4-sulfonamide] | 1000 to 10000 nM |
| CCOc1cc(-c2ccc(O)cc2O)ccc1-c1nc2[nH]nnc2c(=O)[nH]1 [Compound 110, 5-(3-Ethoxy-2′,4′-dihydroxy-[1,1′-biphenyl]-4-yl)-3,6-dihydro-7H-[1,2,3]triazolo[4,5-d]pyrimidin-7-one] | 1000 to 10000 nM |
| CCOc1cc(-c2cc(CCC(=O)O)cc(OCCN)c2)ccc1-c1nc2[nH]nnc2c(=O)[nH]1 [Compound 115, 3-(5-(2-aminoethoxy)-3′-ethoxy-4′-(7-oxo-6,7-dihydro-3H-[1,2,3]triazolo[4,5-d]pyrimidin-5-yl)-[1,1′-biphenyl]-3-yl)propanoic acid] | 1000 to 10000 nM |
| CCOc1cc(-c2ccc(OCCN)c(CCC(=O)O)c2)ccc1-c1nc2[nH]nnc2c(=O)[nH]1 [Compound 116, 3-(4-(2-Aminoethoxy)-3′-ethoxy-4′-(7-oxo-6,7-dihydro-3H-[1,2,3]triazolo[4,5-d]pyrimidin-5-yl)-[1,1′-biphenyl]-3-yl)propanoic acid] | ≤ 1000 nM |
| CCOc1cc(-c2cccc(CCC(=O)NO)c2)ccc1-c1nc2[nH]nnc2c(=O)[nH]1 [Compound 117, 3-(3′-Ethoxy-4′-(7-oxo-6,7-dihydro-3H-[1,2,3]triazolo[4,5-d]pyrimidin-5-yl)-[1,1′-biphenyl]-3-yl)-N-hydroxypropanamide] | 1000 to 10000 nM |
| CCOc1cc(-c2cccc(CCC(=O)NOC)c2)ccc1-c1nc2[nH]nnc2c(=O)[nH]1 [Compound 118, 3-(3′-Ethoxy-4′-(7-oxo-6,7-dihydro-3H-[1,2,3]triazolo[4,5-d]pyrimidin-5-yl)-[1,1′-biphenyl]-3-yl)-N-methoxypropanamide] | 1000 to 10000 nM |
| CCOc1cc(-c2cccc(CCC(N)=O)c2)ccc1-c1nc2[nH]nnc2c(=O)[nH]1 [Compound 119, 3-(3′-Ethoxy-4′-(7-oxo-6,7-dihydro-3H-[1,2,3]triazolo[4,5-d]pyrimidin-5-yl)-[1,1′-biphenyl]-3-yl)propanamide] | 1000 to 10000 nM |
| CCOc1cc(-c2cccc(/C=C3\SC(=O)NC3=O)c2)ccc1-c1nc2[nH]nnc2c(=O)[nH]1 [Compound 120, (Z)-5-((3′-Ethoxy-4′-(7-oxo-6,7-dihydro-3H-[1,2,3]triazolo[4,5-d]pyrimidin-5-yl)-[1,1′-biphenyl]-3-yl)methylene)thiazolidine-2,4-dione] | ≤ 1000 nM |
| CCOc1cc(-c2cccc(CC3SC(=O)NC3=O)c2)ccc1-c1nc2[nH]nnc2c(=O)[nH]1 (stereo not shown) [Compound 121, 5-((3′-Ethoxy-4′-(7-oxo-6,7-dihydro-3H-[1,2,3]triazolo[4,5-d]pyrimidin-5-yl)-[1,1′-biphenyl]-3-yl)methyl)thiazolidine-2,4-dione] | ≤ 1000 nM |
| CCOc1cc(-c2cccc(CCc3noc(=O)[nH]3)c2)ccc1-c1nc2[nH]nnc2c(=O)[nH]1 [Compound 122, 3-(2-(3′-Ethoxy-4′-(7-oxo-6,7-dihydro-3H-[1,2,3]triazolo[4,5-d]pyrimidin-5-yl)-[1,1′-biphenyl]-3-yl)ethyl)-1,2,4-oxadiazol-5(4H)-one] | ≤ 1000 nM |
| CCOc1cc(-c2cccc(CCC(=O)NS(=O)(=O)N(C)C)c2)ccc1-c1nc2[nH]nnc2c(=O)[nH]1 [Compound 123, N—(N,N-Dimethylsulfamoyl)-3-(3′-ethoxy-4′-(7-oxo-6,7-dihydro-3H-[1,2,3]triazolo[4,5-d]pyrimidin-5-yl)-[1,1′-biphenyl]-3-yl)propanamide] | ≤ 1000 nM |
| CCOc1cc(-c2cccc(CCc3nnn[nH]3)c2)ccc1-c1nc2[nH]nnc2c(=O)[nH]1 [Compound 124, 5-(3′-(2-(1H-Tetrazol-5-yl)ethyl)-3-ethoxy-[1,1′-biphenyl]-4-yl)-3,6-dihydro-7H-[1,2,3]triazolo[4,5-d]pyrimidin-7-one] | ≤ 1000 nM |
| CCOc1cc(-c2cccc(CC3OC(=O)NC3=O)c2)ccc1-c1nc2[nH]nnc2c(=O)[nH]1 (stereo not shown) [Compound 125, 5-((3′-Ethoxy-4′-(7-oxo-6,7-dihydro-3H-[1,2,3]triazolo[4,5-d]pyrimidin-5-yl)-[1,1′-biphenyl]-3-yl)methyl)oxazolidine-2,4-dione] | ≤ 1000 nM |
| CCOc1cc(-c2cccc(Cc3c(C)[nH]oc3=O)c2)ccc1-c1nc2[nH]nnc2c(=O)[nH]1 [Compound 126, 4-((3′-Ethoxy-4′-(7-oxo-6,7-dihydro-3H-[1,2,3]triazolo[4,5-d]pyrimidin-5-yl)-[1,1′-biphenyl]-3-yl)methyl)-3-methylisoxazol-5(2H)-one] | ≤ 1000 nM |
| CCOc1cc(-c2cccc(C(O)(O)C(F)(F)F)c2)ccc1-c1nc2[nH]nnc2c(=O)[nH]1 [Compound 127, 5-(3-Ethoxy-3′-(2,2,2-trifluoro-1,1-dihydroxyethyl)-[1,1′-biphenyl]-4-yl)-3,6-dihydro-7H-[1,2,3]triazolo[4,5-d]pyrimidin-7-one] | ≤ 1000 nM |
| CCOc1cc(-c2ccc(C(O)(O)C(F)(F)F)cc2)ccc1-c1nc2[nH]nnc2c(=O)[nH]1 [Compound 128, 5-(3-Ethoxy-4′-(2,2,2-trifluoro-1,1-dihydroxyethyl)-[1,1′-biphenyl]-4-yl)-3,6-dihydro-7H-[1,2,3]triazolo[4,5-d]pyrimidin-7-one] | ≤ 1000 nM |

The remaining lines, values ahead:

| EC50 | SMILES |
| --- | --- |
| ≤ 1000 nM | CCOc1cc(-c2ccc(C(N)=O)cc2)ccc1-c1nc2[nH]nnc2c(=O)[nH]1 [Compound 101, 3′-Ethoxy-4′-(7-oxo-6,7-dihydro-3H-[1,2,3]triazolo[4,5-d]pyrimidin-5-yl)-[1,1′-biphenyl]-4-carboxamide] |
| ≤ 1000 nM | CCOc1cc(-c2cccc(CCCO)c2)ccc1-c1nc2[nH]nnc2c(=O)[nH]1 [Compound 102, 5-(3-Ethoxy-3′-(3-hydroxypropyl)-[1,1′-biphenyl]-4-yl)-3,6-dihydro-7H-[1,2,3]triazolo[4,5-d]pyrimidin-7-one] |
| ≤ 1000 nM | CCOc1cc(-c2cccc(CO)c2)ccc1-c1nc2[nH]nnc2c(=O)[nH]1 [Compound 104, 5-(3-Ethoxy-3′-(hydroxymethyl)-[1,1′-biphenyl]-4-yl)-3,6-dihydro-7H-[1,2,3]triazolo[4,5-d]pyrimidin-7-one] |
| ≤ 1000 nM | CCOc1cc(-c2ccc(CO)cc2)ccc1-c1nc2[nH]nnc2c(=O)[nH]1 [Compound 105, 5-(3-Ethoxy-4′-(hydroxymethyl)-[1,1′-biphenyl]-4-yl)-3,6-dihydro-7H-[1,2,3]triazolo[4,5-d]pyrimidin-7-one] |
| ≤ 1000 nM | CCOc1cc(-c2ccc(O)c(O)c2)ccc1-c1nc2[nH]nnc2c(=O)[nH]1 [Compound 108, 5-(3-Ethoxy-3′,4′-dihydroxy-[1,1′-biphenyl]-4-yl)-3,6-dihydro-7H-[1,2,3]triazolo[4,5-d]pyrimidin-7-one] |
| ≤ 1000 nM | CCOc1cc(-c2cc(O)ccc2O)ccc1-c1nc2[nH]nnc2c(=O)[nH]1 [Compound 109, 5-(3-Ethoxy-2′,5′-dihydroxy-[1,1′-biphenyl]-4-yl)-3,6-dihydro-7H-[1,2,3]triazolo[4,5-d]pyrimidin-7-one] |
| ≤ 1000 nM | CCOc1cc(-c2cc(O)cc(O)c2)ccc1-c1nc2[nH]nnc2c(=O)[nH]1 [Compound 111, 5-(3-Ethoxy-3′,5′-dihydroxy-[1,1′-biphenyl]-4-yl)-3,6-dihydro-7H-[1,2,3]triazolo[4,5-d]pyrimidin-7-one] |
| ≤ 1000 nM | CCOc1cc(-c2cc(O)cc(/C=C/C(=O)O)c2)ccc1-c1nc2[nH]nnc2c(=O)[nH]1 [Compound 112, (E)-3-(3′-ethoxy-5-hydroxy-4′-(7-oxo-6,7-dihydro-3H-[1,2,3]triazolo[4,5-d]pyrimidin-5-yl)-[1,1′-biphenyl]-3-yl)acrylic acid] |
| ≤ 1000 nM | CCOc1cc(-c2cc(O)cc(CCC(=O)O)c2)ccc1-c1nc2[nH]nnc2c(=O)[nH]1 [Compound 113, 3-(3′-Ethoxy-5-hydroxy-4′-(7-oxo-6,7-dihydro-3H-[1,2,3]triazolo[4,5-d]pyrimidin-5-yl)-[1,1′-biphenyl]-3-yl)propanoic acid] |
| ≤ 1000 nM | CCOc1cc(-c2cc(O)cc(CCC(N)=O)c2)ccc1-c1nc2[nH]nnc2c(=O)[nH]1 [Compound 114, 3-(3′-Ethoxy-5-hydroxy-4′-(7-oxo-6,7-dihydro-3H-[1,2,3]triazolo[4,5-d]pyrimidin-5-yl)-[1,1′-biphenyl]-3-yl)propanamide] |
